From patent US4365076A, “Process for the preparation of cycloalkylidenemethylphenylacetic acid derivatives” (Sankyo Company Limited, priority 1977, dated 1982) come the findings set out here.

The subject of assay [1] is carrageenin-induced paw edema. As to the kind of experiment: Carrageenin Edema Test in Rats. The format is in vivo, rat (male Wistar). As to conditions: for Inhibition %, Anti-inflammatory activity: Table I; for ED50: Rattus norvegicus, po, P.O., 30 minutes before carrageenin, edema 3 hours after, rats, Table II, read-out: Anti-inflammatory activity, Carrageenin Edema Test ID50. On the procedure:
(1) Carrageenin Edema Test in Rats
Inflammation was introduced by injection of 0.05 ml. of 1% carrageenin suspension into the plantar tissue of rat hind paw subcutaneously, by the method of Winter et al. in Proc. Soc. Exp. Biol. Med. 111, 544 (1962). Male Wistar rats weighing 120 to 150 g. which had fasted overnight received the test drug in aqueous tragacanth suspension orally 30 minutes before the carrageenin injection.
Paw edema was measured volumetrically, just before and 3 hours after the carrageenin injection, and R (response) was obtained by the following equation: R=(V-Vo)/Vo, where Vo and V represented the paw volumes 0 and 3 hours after carrageenin injection, respectively.
(§1) In order to get the regression line of H (% inhibition of the response) on D (dose of test drug), H in each animal was calculated from the ratio of the response to the mean response in non-medicated group. Then, the regression line and ID50 were obtained by the method of least squares. The confidence limits of ID50 was calculated using Fieller's Equation.
For orientation: Carrageenan injected into the paw causes an acute inflammation.

Assay [2] deals with inflammatory pain. Kind of assay: Thermal Pain Test in Rats (analgesic activity on inflammatory pain). The format is in vivo, rat (male Wistar). As to conditions: for Inhibition %, Analgesic activity: Table I; for ED50: Rattus norvegicus, po, P.O., mean at 1 and 2 hours after drug, rats, Table II, read-out: Analgesic activity, Thermal Pain Test ID50. The protocol: II. ANALGESIC ACTIVITY ON INFLAMMATORY PAIN
Thermal Pain Test in Rats
The test was conducted according to the method reported by Y. Iizuka and K. Tanaka in Folia Pharmacol. Japan, 70, 697 (1974).
Under ether anesthesia, male Wistar rat of 5-7 weeks old received a standard heat injury at the hind paw by dipping it in hot water (57° C., 6 seconds). More than 1 hour later, the pain reaction could be evoked easily by another stimulatory heat (40° C., 5 seconds). Namely immediately after this treatment, the animal used to lift up the injured paw, presumably to avoid further pain which might be caused by touching it with the wire-netting of the cage.
Thus, the sum of duration time of the paw-lifting behavior was counted over a 30 seconds period and this was used as "pain reaction time." Drug was given orally 2 hours after the first application of heat and the mean value of "pain reaction time" at 1 and 2 hours after drug administration was used as the response.
as §1

Assay [3] deals with adjuvant-induced arthritis. Kind of assay: Adjuvant-induced Arthritis Test in Rats (Therapeutic Effect on Established Arthritis). The assay is classed as in vivo, rat (female Lewis). As to conditions: Rattus norvegicus, po, 168 h, P.O., twice a day, 7 days (day 18 to 25), Table II, read-out: Anti-inflammatory activity, Adjuvant Arthritis Test ID50. On the procedure: (2) Adjuvant-induced Arthritis Test in Rats
(Therapeutic Effect on Established Arthritis)
Female Lewis rats of 7-8 weeks old were injected intradermally in the hind paw with 0.05 mg. of heat-killed Mycobacterium butyricum in 0.05 ml. of liquid paraffin. Eighteen days after adjuvant injection, the well-established arthritic animals were selected and subjected to 7 days therapy with drug (twice a day orally). As the response, the volume of injected foot was measured by water displacement method at the beginning (day 18) and the end (day 25) of the therapy period.
as §1
In adjuvant arthritis, however, the ratio (RR) of responses after/before medication period was calculated first, where the response meant the swelled foot volume of the injected foot. Then, H in each animal was calculated from the ratio of RR to RRc, where RRc represented the mean RR is non-medicated group.

Assay [4] concerns LPS-induced fever. Kind of assay: LPS-induced Fever Test in Guinea Pigs (antipyretic activity). The format is in vivo, guinea pig (female Hartley). The conditions noted are these: Cavia porcellus, po, P.O., 1.5 hours after LPS, mean at 1 and 2 hours after drug, Table II, read-out: Antipyretic activity, LPS-induced Fever Test ID50. On the procedure: III. ANTIPYRETIC ACTIVITY
LPS-induced Fever Test in Guinea Pigs
Antipyretic activity was determined by a modified method of Kobayashi and Takagi in Jap. J. Pharmacol. 18, 80 (1968). Female Hartley guinea pigs weighing about 300 g. had fasted overnight and the fever was induced by injecting 1.0 μg/ml/kg LPS (product of Difco Laboratories, U.S.A., Lipo polysaccharide from Escherichia coli).
One hour after the injection, rectal temperature was measured and only the animals with fever between 0.8° C. and 1.2° C. were used for experiment.
Drugs were administered orally 1.5 hours after LPS injection, and the mean value of rectal temperature of each animal 1 and 2 hours after drug administration was used as the response.
as §1

`CCCCC1C(=O)N(c2ccccc2)N(c2ccccc2)C1=O` [Phenylbutazone, reference compound]: in assay [1] ((Control) 25 mg/kg (P.O.)), the “Inhibition %, Anti-inflammatory activity” value stood at 30.6%. In addition, in assay [2] ((Control) 19 mg/kg (P.O.)), the “Inhibition %, Analgesic activity” value worked out at 37%.

In the case of `CC(C(=O)O)c1ccc(C=C2CCCC2=O)cc1` (stereo not shown) [2-[4-(2-Oxo-1-cyclopentylidenemethyl)phenyl]propionic acid], the ED50 amounted to 1.2 mg/kg in assay [3], 0.83 mg/kg in assay [4], 1.4 mg/kg in assay [1] and 1.3 mg/kg in assay [2]. Also, in assay [1] (6.3 mg/kg (P.O.)), the “Inhibition %, Anti-inflammatory activity” value is on record as 76.4%. The “Inhibition %, Analgesic activity” value in assay [2] (6.3 mg/kg (P.O.)) is 77.4%.

Regarding `CC(C(=O)O)c1ccc(C=C2CCCCC2=O)cc1` (stereo not shown) [2-[4-(2-Oxo-1-cyclohexylidenemethyl)phenyl]propionic acid], the ED50 in assay [3] was 0.2 mg/kg; in assay [4], 1.46 mg/kg; in assay [1], 1.2 mg/kg; in assay [2] it was 1.8 mg/kg. For the same molecule, the “Inhibition %, Anti-inflammatory activity” value in assay [1] (6.3 mg/kg (P.O.)) was found to be 75.0%. For the same molecule, the “Inhibition %, Analgesic activity” value in assay [2] (6.3 mg/kg (P.O.)) came out at 86.8%.

As to `CCOC(=O)C(C)c1ccc(C=C2CCCC2=O)cc1` (stereo not shown) [Ethyl 2-[4-(2-oxo-1-cyclopentylidenemethyl)phenyl]propionate], the “Inhibition %, Anti-inflammatory activity” value in assay [1] (6.3 mg/kg (P.O.)) is recorded as 85.0%. The “Inhibition %, Analgesic activity” value in assay [2] (6.3 mg/kg (P.O.)) is on record as 50.5%.

On to `CCOC(=O)C(C)c1ccc(C=C2CCCCC2=O)cc1` (stereo not shown) [Ethyl 2-[4-(2-oxo-1-cyclohexylidenemethyl)phenyl]propionate], for which, in assay [1] (6.3 mg/kg (P.O.)), the “Inhibition %, Anti-inflammatory activity” value is on record as 72.7%. In assay [2] (6.3 mg/kg (P.O.)), the “Inhibition %, Analgesic activity” value is recorded as 59.2%.

For the molecule `CC(C)Cc1ccc(C(C)C(=O)O)cc1` (stereo not shown) [Ibuprofen, reference compound], the ED50 in assay [3] stood at 104 mg/kg; in assay [4], 1.26 mg/kg; in assay [1], 10.8 mg/kg; in assay [2] it was 17.8 mg/kg.
